According to PMC2363760, “A novel doxorubicin-glucuronide prodrug DOX-GA3 for tumour-selective chemotherapy: distribution and efficacy in experimental human ovarian cancer” (British Journal of Cancer, 2001):
Read-outs that look alike come from different tables or passages of the source.

How the values were obtained:
[1] = system: β-glucuronidase; details: ref Tomino and Paigen, 1975; cited from earlier work
[2] = system: OVCAR-3 cells; assay: In vitro antiproliferative effects in OVCAR-3 cells (sulforhodamine B, 72 h); format: cell-based, human; details: for IC50: 72 h
[3] = system: OVCAR-3 xenografts; details: for GI % (maximum growth inhibition): DOX 8 or DOX-GA3 500 mg kg-1 i.v. weekly x 2; for TD14 (tumour volume doubling time from a relative volume of 1 to 4) / Weight loss / Weight day 14: DOX 8 or DOX-GA3 500 mg kg-1 i.v. days 0,7
[4] = In vivo stability of the prodrug in non-tumour bearing mice; details: DOX-GA3 250 mg kg-1, t = 30 min
[5] = Stability of DOX-GA3 in stored control tissue homogenates and serum samples; format: in vitro ADME; details: up to 1 mM, up to 4 weeks at -20C (data not shown)
[6] = target: T1, human β-glucuronidase (Homo sapiens, UniProt P08236); details: pH 6.8, 37C, enzyme 1 g ml-1, 30 min, direct linear plots
T1 sequence (P08236 23-651): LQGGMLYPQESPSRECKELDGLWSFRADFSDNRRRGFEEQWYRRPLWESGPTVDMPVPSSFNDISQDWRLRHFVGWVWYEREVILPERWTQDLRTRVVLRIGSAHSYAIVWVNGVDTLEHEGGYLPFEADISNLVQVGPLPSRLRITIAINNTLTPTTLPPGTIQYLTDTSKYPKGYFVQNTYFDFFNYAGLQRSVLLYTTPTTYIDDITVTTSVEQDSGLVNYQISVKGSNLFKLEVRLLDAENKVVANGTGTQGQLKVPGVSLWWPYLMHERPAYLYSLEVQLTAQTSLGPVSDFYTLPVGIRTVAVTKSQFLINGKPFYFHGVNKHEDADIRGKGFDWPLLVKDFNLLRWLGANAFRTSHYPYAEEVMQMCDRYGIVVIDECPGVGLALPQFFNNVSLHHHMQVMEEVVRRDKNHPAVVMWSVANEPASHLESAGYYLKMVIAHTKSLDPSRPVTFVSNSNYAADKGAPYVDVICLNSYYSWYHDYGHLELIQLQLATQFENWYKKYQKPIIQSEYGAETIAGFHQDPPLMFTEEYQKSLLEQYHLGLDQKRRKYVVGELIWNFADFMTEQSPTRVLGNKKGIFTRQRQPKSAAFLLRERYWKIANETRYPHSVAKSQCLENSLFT

[7] = Maximum tolerated dose in OVCAR-3-bearing nude mice
[8] = system: β-glucuronidase; assay: Inhibition of β-glucuronidase activity by saccharolactone in samples; format: biochemical; details: 1 mM (data not shown)
[9] = DOX-GA3 250 mg kg-1 vs DOX 8 mg kg-1
[10] = after DOX 8 mg kg-1 or DOX-GA3 250 mg kg-1 i.v.

Compound: O=C(O)[C@H]1O[C@@H](Oc2ccc([N+](=O)[O-])cc2)[C@H](O)[C@@H](O)[C@@H]1O [4-nitrophenyl-glucuronide]
- Km [1]: 1300 µM

Compound: COc1cccc2c1C(=O)c1c(O)c3c(c(O)c1C2=O)C[C@@](O)(C(=O)CO)C[C@@H]3O[C@H]1C[C@H](N)[C@H](O)[C@H](C)O1 [DOX, Doxorubicin]
- IC50 ([2]; Homo sapiens): 0.12 µM
- heart AUC of DOX, fold higher after DOX than after prodrug (nude, mouse, in vivo): 3.1 fold
- kidney AUC of DOX, times lower after DOX than after prodrug (nude, mouse, in vivo): 2.0 times
- liver AUC of DOX, fold higher after DOX than after prodrug (nude, mouse, in vivo): 1.8 fold
- GI % (maximum growth inhibition) ([3]; larger tumours (mean 400 mm3)): 52%
- TD14 (tumour volume doubling time from a relative volume of 1 to 4) ([3]; larger tumours): 21.5 days
- GI % (maximum growth inhibition) ([3]; small tumours (mean 125 mm3)): 56%
- TD14 (tumour volume doubling time from a relative volume of 1 to 4) ([3]; small tumours): 11.5 days

Compound: COc1cccc2c1C(=O)c1c(O)c3c(c(O)c1C2=O)C[C@@](O)(C(=O)CO)C[C@@H]3O[C@H]1C[C@H](NC(=O)OCc2ccc(NC(=O)O[C@@H]3O[C@H](C(=O)O)[C@@H](O)[C@H](O)[C@H]3O)cc2)[C@H](O)[C@H](C)O1 [DOX-GA3, N -[4-doxorubicin-N -carbonyl (oxymethyl)phenyl] O -β-glucuronyl carbamate]
- times less capable of inhibiting cell growth than DOX [2]: more than 100 times
- IC50 [2]: 22 µM
- drug/prodrug ratio in plasma [4]: 0.001
- activation to doxorubicin on storage [5]: less than 0.1%
- Km [6]: 1100 µM
- Vmax [6]: 25.0 μmol min^–1mg^–1
- tumour AUC of DOX, fold higher after DOX-GA3 than after DOX (DOX at MTD, prodrug at half of MTD): 10 fold
- times lower peak plasma concentration of DOX than after DOX (DOX-GA3 250 mg kg-1 i.v. vs DOX 8 mg kg-1 i.v.): 7.6 times
- prodrug peak concentration in plasma (DOX-GA3 250 mg kg-1 i.v., t = 1 min): 1370 nmol/mL
- peak of DOX-GA3 in OVCAR-3 tumour tissue (DOX-GA3 250 mg kg-1 i.v., t = 30 min): 44.0 nmol/g
- fold higher DOX peak concentration in tumour than after DOX [9]: ~5 fold
- fold lower peak DOX concentration in normal tissues (heart) than after DOX [9]: up to 5 fold
- DOX peak concentration in OVCAR-3 tumour tissue (after DOX 8 mg kg-1 (t = 1 min) or DOX-GA3 250 mg kg-1 (t = 2 h) i.v.): 9.57 nmol/g
- DOX peak concentration in heart [10]: 3.27 nmol/g
- DOX peak concentration in kidney [10]: 70.8 nmol/g
- DOX peak concentration in liver [10]: 14.2 nmol/g
- DOX peak concentration in plasma [10]: 2.17 nmol/mL
- drug targeting index (DTI), heart tissue (tumour vs heart): 31.4
- drug targeting index (DTI), plasma (tumour vs plasma (surrogate for bone marrow)): 81.4
- ratio of drug/prodrug in plasma (tumour-bearing animals, DOX-GA3 250 mg kg-1): 0.002
- specific growth delay (SGD) ([3]; larger tumours (mean 400 mm3), 500 mg kg-1 i.v. weekly x 2): 3.9
- Weight loss ([3]; larger tumours (mean 400 mm3)): 9.6%
- GI % (maximum growth inhibition) ([3]; larger tumours (mean 400 mm3)): 88%
- TD14 (tumour volume doubling time from a relative volume of 1 to 4) ([3]; larger tumours): 75.1 days
- Weight day 14 ([3]; larger tumours): 91.9%
- Weight loss ([3]; small tumours (mean 125 mm3)): 5.1%
- GI % (maximum growth inhibition) ([3]; small tumours (mean 125 mm3)): 87%
- TD14 (tumour volume doubling time from a relative volume of 1 to 4) ([3]; small tumours): 32.4 days
- Weight day 14 ([3]; small tumours): 99.0%
- maximum weight loss at MTD ([7]; 500 mg kg-1 i.v. weekly x 2): approximately 10%
- toxic deaths at MTD ([7]; 500 mg kg-1 i.v. weekly x 2): No toxic deaths occurred
- molar amount that could be administered at an equitoxic dose, compared with parent drug ([7]; DOX-GA3 500 mg kg-1 x 2 vs DOX 8 mg kg-1 x 2): 38 fold
- MTD ([7]; i.v. weekly x 2, OVCAR-3-bearing mice): 500 mg/kg

Compound: O.O=C(O)[C@@H](O)[C@H]1OC(=O)[C@H](O)[C@H]1O [Saccharolactone, D-glucaric acid-1,4-lactone monohydrate]
- activity of the enzyme abolished [8]: > 99%
